Measurements published in PMC9936582, “Sulfamate Acetamides as Self-Immolative Electrophiles for Covalent Ligand-Directed Release Chemistry” (Journal of the American Chemical Society, 2023).

Test system: Mino cells
Test: Competitive pull-down proteomics with ibrutinib alkyne probe in Mino cells
Assay type: cell-based, human
Conditions: 1 µM compound 1 h
Protocol: (10 μM). This was followed by a reaction with biotin-azide using CuAAC, enrichment of the labeled proteins, and their quantification by tryptic digestion and LC/MS/MS analysis.
The samples were then precipitated with methanol: chloroform (1 mL of methanol, 250 μL of chloroform, and 750 μL of water), washed with 1 mL of methanol, and air-dried. The samples were solubilized and bound to streptavidin agarose beads in PBS for 3 h at 25 °C. The beads were washed, centrifuged, and resuspended in Tris 50 mM pH 8 and transferred to a clean Eppendorf tube. After this, the bound proteins were eluted by boiling with 5% SDS then reduced with DTT, alkylated with iodoacetamide, and digested with trypsin. The samples were run on LC/MS/MS. The detailed procedure is available in the Supplementary Information. The mass spectrometry proteomics data have been deposited to the ProteomeXchange Consortium via the PRIDE[67] partner repository with the dataset identifiers PXD038301 and PXD038375.
400 µL of 0.1% IGEPAL/PBS were added, and the beads were washed 3 times with 0.1% IGEPAL/PBS, 3 times PBS and 3 times water. The peptides were eluted by incubation with 200 µL of 50% acetonitrile + 0.1% TFA for 5 min, followed by two more portions of 100 µL of 50% acetonitrile + 0.1% TFA. The samples were dried by speedvac, and further purified using Oasis desalting columns (Waters), after which they were dried and run on the instrument.
Pull-down samples preparation […]
incubation with 10 μM “probe 4” for another hour. The samples were prepared in quadruplicates. The cells were washed with cold PBS, from the flasks and frozen. Then, each sample was lysed in 200 μL of […]
The protein in the supernatant was quantified using BCA. For each sample, 250 μL of 1.7 mg/mL was prepared. At this point, 5 μL of 5 mM biotin azide and 9 μL of 100 mM CuSO4/THPTA complex were added. The click reaction was initiated by the addition of 7.5 μL of 150 mM sodium ascorbate, and the samples are incubated at room temperature for 1 h. The samples were then precipitated with methanol/chloroform (1 mL methanol, 250 μL chloroform, 750 μL water), washed with 1 mL of methanol, and air-dried. […]
and heated to 95 °C for 5 min. The samples were then diluted to 1.5 mL with PBS, and 50 μL of streptavidin agarose beads, prewashed with 0.2% SDS in PBS, was added, followed by 3 h incubation at room temperature. Following the incubation, the beads were centrifuged at 2000g for 2 min and washed four times with the following buffers (4 mL in each wash): 2% SDS; 0.1% sodium deoxycholate, 1% Triton X-100, 0.5 M NaCl, 1 mM EDTA, 50 mM HEPES pH = 7.5; 0.25 M NaCl, 0.5% IGEPAL, 0.5% sodium deoxycholate, 1 mM EDTA, 10 mM Tris pH = 8.1; 50 mM Tris pH = 7.4, 50 mM NaCl. […]
with heating to 95 °C for 6 min and occasional vortexing. Finally, the beads were spun down (2 min 2000g) and 80 μL of supernatant was removed to separate tubes. […]
had cooled, 4 μL of iodoacetamide (0.2 M) were added, and the samples were incubated in the dark for 40 min at room temperature. […]
samples were diluted 6-fold with 90% methanol + 50 mM ammonium bicarbonate. The samples were then […]
loaded on S-trap micro columns (Protify), and the columns were washed three times with 150 μL of 90% methanol + 50 mM ammonium bicarbonate. Then, 20 μL of 0.05 μg/μL of trypsin in 50 mM ammonium bicarbonate was added to the columns and the samples were incubated at 47 °C for 90 min. Then, 40 μL of 50 mM ammonium bicarbonate was added, followed by centrifugation and addition of 1 μL of 0.5 μg/μL trypsin to the eluate, which was incubated at 37 °C overnight. The column itself was then eluted using 40 μL of 0.2% formic acid and 40 μL 0.2% formic acid in 50% acetonitrile into a separate tube, which was kept at 4 °C. The two eluates were then combined and evaporated. The samples were further desalted using […]

## CNS(=O)(=O)OCC(=O)N1CCC[C@@H](n2nc(-c3ccc(Oc4ccccc4)cc3)c3c(N)ncnc32)C1 [3c]
4F2_HUMAN
  Log2(Fold Change): -0.003946
AATM_HUMAN
  Log2(Fold Change): 0.8443
ACSF3_HUMAN
  Log2(Fold Change): -0.02243
AHNK_HUMAN
  Log2(Fold Change): 0.1794
ALG1_HUMAN
  Log2(Fold Change): 0.4128
ANXA1_HUMAN
  Log2(Fold Change): -1.116
APEX1_HUMAN
  Log2(Fold Change): 0.3544
ARP3_HUMAN;ARP3B_HUMAN;ARP3C_HUMAN
  Log2(Fold Change): 0.7666
AT1A1_HUMAN;AT1A2_HUMAN;AT1A4_HUMAN;ATP4A_HUMAN;AT12A_HUMAN
  Log2(Fold Change): 0.2874
ATP5H_HUMAN
  Log2(Fold Change): 0.2249
ATPK_HUMAN
  Log2(Fold Change): 0.3336
ATPO_HUMAN
  Log2(Fold Change): 1.122
ATX10_HUMAN
  Log2(Fold Change): 1.148
BST2_HUMAN
  Log2(Fold Change): 1.515
BZW1_HUMAN
  Log2(Fold Change): 1.5907
C1TM_HUMAN
  Log2(Fold Change): 0.2312
CALL5_HUMAN
  Log2(Fold Change): -0.3562
CD20_HUMAN
  Log2(Fold Change): 0.973
CD38_HUMAN
  Log2(Fold Change): 0.2424
CLCA_HUMAN
  Log2(Fold Change): 0.2558
CLH1_HUMAN;CLH2_HUMAN
  Log2(Fold Change): -0.3445
COX2_HUMAN
  Log2(Fold Change): 0.13
CRERF_HUMAN
  Log2(Fold Change): -0.08019
DD19B_HUMAN;DD19A_HUMAN
  Log2(Fold Change): 0.602
DDX3X_HUMAN;DDX3Y_HUMAN;DDX4_HUMAN
  Log2(Fold Change): 0.1847
DNJC7_HUMAN
  Log2(Fold Change): -0.02484
DSC1_HUMAN
  Log2(Fold Change): -0.8463
EF1B_HUMAN
  Log2(Fold Change): -0.1869
EPIPL_HUMAN
  Log2(Fold Change): -1.263
FPPS_HUMAN
  Log2(Fold Change): -0.1485
GCR_HUMAN
  Log2(Fold Change): -0.05313
GLYM_HUMAN;GLYC_HUMAN
  Log2(Fold Change): 0.5085
GSDMA_HUMAN
  Log2(Fold Change): -0.7475
HMCS1_HUMAN
  Log2(Fold Change): 0.08713
HXK2_HUMAN;HXK3_HUMAN
  Log2(Fold Change): 0.7187
IF4A1_HUMAN
  Log2(Fold Change): -0.255
IF4A3_HUMAN
  Log2(Fold Change): 1.002
IF4H_HUMAN
  Log2(Fold Change): 0.7933
IGLL5_HUMAN;IGL1_HUMAN;IGLC1_HUMAN
  Log2(Fold Change): -1.242
LAPM5_HUMAN
  Log2(Fold Change): 0.4417
LAT1_HUMAN
  Log2(Fold Change): -0.2915
LMNA_HUMAN
  Log2(Fold Change): 0.31
MATR3_HUMAN
  Log2(Fold Change): 0.6026
MBB1A_HUMAN
  Log2(Fold Change): 0.2625
MCCA_HUMAN
  Log2(Fold Change): -0.03232
MIC19_HUMAN
  Log2(Fold Change): -0.1615
MP2K7_HUMAN
  Log2(Fold Change): 1.332
NCEH1_HUMAN
  Log2(Fold Change): 0.9366
NT5D1_HUMAN
  Log2(Fold Change): 0.9214
NUCL_HUMAN
  Log2(Fold Change): 0.1005
OTUB1_HUMAN
  Log2(Fold Change): -0.08587
P121C_HUMAN;P121A_HUMAN
  Log2(Fold Change): 0.1409
PARK7_HUMAN
  Log2(Fold Change): 0.4175
PCKGM_HUMAN
  Log2(Fold Change): -0.3825
PEBP1_HUMAN
  Log2(Fold Change): 0.1182
PEPL_HUMAN
  Log2(Fold Change): -0.4806
PFKAL_HUMAN
  Log2(Fold Change): -0.8784
PGK1_HUMAN;PGK2_HUMAN
  Log2(Fold Change): 0.09163
PIP_HUMAN
  Log2(Fold Change): -1.053
PLAK_HUMAN;CTNB1_HUMAN
  Log2(Fold Change): -0.3765
POF1B_HUMAN
  Log2(Fold Change): -0.7349
PSA3_HUMAN
  Log2(Fold Change): 0.7265
PSB8_HUMAN
  Log2(Fold Change): 0.6836
RAB1A_HUMAN;RAB1B_HUMAN;RAB1C_HUMAN
  Log2(Fold Change): 0.7505
RANG_HUMAN;IPKB_HUMAN
  Log2(Fold Change): -0.3363
RAP1B_HUMAN;RAP1A_HUMAN;RP1BL_HUMAN;RAB3D_HUMAN
  Log2(Fold Change): -0.2646
RFTN1_HUMAN
  Log2(Fold Change): 0.04464
RL13A_HUMAN;R13P3_HUMAN
  Log2(Fold Change): 0.8429
RL18_HUMAN
  Log2(Fold Change): 0.1972
RLA1_HUMAN
  Log2(Fold Change): -0.4322
RN3P2_HUMAN
  Log2(Fold Change): -0.1916
RS28_HUMAN
  Log2(Fold Change): 1.548
RTN4_HUMAN
  Log2(Fold Change): 0.4072
RUVB2_HUMAN
  Log2(Fold Change): 0.8939
S38A1_HUMAN
  Log2(Fold Change): 1.036
S61A1_HUMAN;S61A2_HUMAN
  Log2(Fold Change): 1.044
SAE2_HUMAN
  Log2(Fold Change): 0.8904
SATT_HUMAN
  Log2(Fold Change): 0.02917
SCRB1_HUMAN
  Log2(Fold Change): 0.4543
SIAT1_HUMAN
  Log2(Fold Change): 1.583
SO4A1_HUMAN
  Log2(Fold Change): 1.603
SPB4_HUMAN
  Log2(Fold Change): 1.011
SPB12_HUMAN
  Log2(Fold Change): 0.1706
SSDH_HUMAN
  Log2(Fold Change): 0.9154
SUCB1_HUMAN
  Log2(Fold Change): 0.5342
TAP1_HUMAN
  Log2(Fold Change): -1.372
TAP2_HUMAN;ABCB8_HUMAN;ABCBA_HUMAN
  Log2(Fold Change): -0.08664
TBB2B_HUMAN;TBB2A_HUMAN
  Log2(Fold Change): -0.7631
TSN_HUMAN
  Log2(Fold Change): 0.3727
TX264_HUMAN
  Log2(Fold Change): 0.3312
UB2V2_HUMAN;UB2V1_HUMAN
  Log2(Fold Change): 1.079
UBP5_HUMAN
  Log2(Fold Change): -0.3855
UBP14_HUMAN
  Log2(Fold Change): 1.084
URP2_HUMAN
  Log2(Fold Change): 1.649
USMG5_HUMAN
  Log2(Fold Change): 0.5625
VDAC1_HUMAN
  Log2(Fold Change): 0.3406
VEZA_HUMAN
  Log2(Fold Change): 1.904
XPO2_HUMAN
  Log2(Fold Change): 0.4199
XPO5_HUMAN
  Log2(Fold Change): -0.04737
ZDHC8_HUMAN
  Log2(Fold Change): -1.5861
